Literature values in US6387904B2, “Method of treating glaucoma and ischemic retinopathy” (Pfizer INC, priority 1998, dated 2002).
Where a name gives a salt, the structure may show the parent alone.

Tests used:
Norpinephrine reuptake = Norpinephrine reuptake (Homo sapiens, UniProt P23975); conditions: neurotransmitter uptake inhibition; mean ± spread (n)
DA reuptake = target: T1, DA reuptake (Homo sapiens, UniProt Q01959); conditions: neurotransmitter uptake inhibition; mean ± spread (n)
T1 construct: host or cells: central nervous system tissue

5-HT1A = target: T2, 5-HT1A (Homo sapiens, UniProt P08908); conditions: ligand [3H]-80H-DPAT; central nervous system tissue; mean ± spread (n)
T2 construct: host or cells: central nervous system tissue
T2 sequence (P08908 1-422): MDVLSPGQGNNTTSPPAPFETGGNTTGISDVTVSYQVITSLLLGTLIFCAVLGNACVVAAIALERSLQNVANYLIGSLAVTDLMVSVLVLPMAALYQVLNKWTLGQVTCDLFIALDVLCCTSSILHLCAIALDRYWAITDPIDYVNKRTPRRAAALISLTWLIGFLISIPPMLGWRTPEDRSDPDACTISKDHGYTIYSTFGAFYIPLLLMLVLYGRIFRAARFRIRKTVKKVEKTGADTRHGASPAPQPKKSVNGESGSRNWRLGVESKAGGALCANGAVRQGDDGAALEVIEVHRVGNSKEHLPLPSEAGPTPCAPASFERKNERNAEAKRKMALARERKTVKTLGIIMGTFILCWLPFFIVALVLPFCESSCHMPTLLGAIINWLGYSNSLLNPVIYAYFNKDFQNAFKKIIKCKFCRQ

T1 sequence (Q01959 whole entry): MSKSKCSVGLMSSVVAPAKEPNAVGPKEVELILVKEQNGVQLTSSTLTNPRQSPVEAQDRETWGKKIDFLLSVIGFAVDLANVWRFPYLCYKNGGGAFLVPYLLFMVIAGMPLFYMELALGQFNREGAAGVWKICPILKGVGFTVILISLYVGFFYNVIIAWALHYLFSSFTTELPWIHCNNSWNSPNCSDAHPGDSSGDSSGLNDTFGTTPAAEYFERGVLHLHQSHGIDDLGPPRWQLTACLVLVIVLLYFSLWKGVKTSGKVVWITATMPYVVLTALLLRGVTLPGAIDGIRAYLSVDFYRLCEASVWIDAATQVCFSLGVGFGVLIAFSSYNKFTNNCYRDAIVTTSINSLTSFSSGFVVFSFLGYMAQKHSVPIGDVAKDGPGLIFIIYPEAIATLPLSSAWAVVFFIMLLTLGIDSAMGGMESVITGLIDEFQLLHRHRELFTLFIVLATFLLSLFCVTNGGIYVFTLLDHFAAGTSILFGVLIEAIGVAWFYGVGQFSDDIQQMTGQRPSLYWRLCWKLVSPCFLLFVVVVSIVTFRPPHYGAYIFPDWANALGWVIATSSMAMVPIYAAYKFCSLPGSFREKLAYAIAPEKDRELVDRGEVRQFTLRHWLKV
Norpinephrine reuptake, sequence (P23975 whole entry): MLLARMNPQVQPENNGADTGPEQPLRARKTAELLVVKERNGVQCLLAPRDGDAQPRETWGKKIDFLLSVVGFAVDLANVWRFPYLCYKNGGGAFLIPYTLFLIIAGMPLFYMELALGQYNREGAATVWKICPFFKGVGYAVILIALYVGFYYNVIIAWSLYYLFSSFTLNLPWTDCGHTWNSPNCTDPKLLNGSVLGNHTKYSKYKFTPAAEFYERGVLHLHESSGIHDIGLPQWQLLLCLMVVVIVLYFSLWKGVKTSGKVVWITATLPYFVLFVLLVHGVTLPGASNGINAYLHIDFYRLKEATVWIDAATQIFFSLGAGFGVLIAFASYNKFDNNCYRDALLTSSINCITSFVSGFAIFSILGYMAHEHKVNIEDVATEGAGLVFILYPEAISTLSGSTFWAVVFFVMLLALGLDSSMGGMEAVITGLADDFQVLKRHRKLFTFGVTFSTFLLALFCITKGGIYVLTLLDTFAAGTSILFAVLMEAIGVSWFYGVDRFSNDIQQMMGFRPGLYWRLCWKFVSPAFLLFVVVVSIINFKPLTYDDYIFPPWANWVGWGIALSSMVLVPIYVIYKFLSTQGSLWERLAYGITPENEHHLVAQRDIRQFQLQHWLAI

Q: With `O=C1Cc2cc(CCN3CCN(c4nsc5ccccc45)CC3)c(Cl)cc2N1` [ziprasidone, 5-(2-(4-(1,2-benzisothiazol-3-yl)piperazinyl)ethyl)-6-chlorooxindole hydrochloride] as the compound, how does the “pKi Neurotransmiter Reuptake Blockade: Norpinephrine” value (Norpinephrine reuptake) read?
A: Its value is 7.30 ± 0.01 (4).

Q: What about the “pKi Neurotransmiter Reuptake Blockade: DA” value (DA reuptake) of the same compound?
A: The value was 6.58 ± 0.02 (3).

Q: And the “pKi 5-HT1A” value (5-HT1A)?
A: Its value is 8.47 ± 0.05 (4).
